The values below are quoted from earlier work in patent US7022342B2, “Controlled release oral dosage form of beta-adrenergic blocking agents” (Andrx Corporation, Inc., priority 2002, dated 2006).

The conditions of data set [1]: after oral administration of the conventional tablets.

Consider `CC(C)NCC(O)COc1cccc2ccccc12` (centres unmarked) [Propranolol], for which the solubility in water entry is reported as “freely soluble”. In addition, in data set [1], the “time of peak plasma concentrations” value was 60 to 90 min.
